Measurements: US7253194B2, “Compounds and inhibitors of phospholipases” (The University of Queensland, priority 2000, dated 2007)
pIC50: −log10 of the molar value.

Molecular target: T1, human non-pancreatic sPLA2 (type IIa) (Homo sapiens, UniProt P14555)
T1 construct: Garvan Institute for Medical Research (provided, not a commercial vendor)
T1 sequence (P14555 21-144): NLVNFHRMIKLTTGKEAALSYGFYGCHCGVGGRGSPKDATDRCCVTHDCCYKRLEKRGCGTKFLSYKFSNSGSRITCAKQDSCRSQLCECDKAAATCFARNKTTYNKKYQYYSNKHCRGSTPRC
Experiment: Assay for inhibition of human non-pancreatic sPLA2 (type IIa), mixed micelle colorimetric assay
Assay type: biochemical
Conditions: recombinant hIIa-PLA2; substrate diheptanoyl thio-phosphatidyl choline, DTNB detection; IC50 from Dixon plot extrapolation; read-out: IC50, inhibition of human secretary PLA2
Text: Assay for Inhibition of Human Non-Pancreatic sPLA2 (type IIa)
A mixed nucelle colorimetric assay utilising a microtitreplate reader was used as described by Reynolds, L. J.; Hughes, L. L.; Dennis, E. A. “Analysis of human synovial fluid phospholipase A2 on short chain phosphatidylcholine-mixed micelles: Development of a spectrophotometric assay suitable for a microplate reader”. Anal Biochem. 1992, 204, 190-197.
Reagents were obtained commercially in the sPhospholipase A2 Assay Kit, Cayman Chemical Company MI USA. Buffer (25 mM Tris HCl at pH 7.5, 1 mg/mL BSA, 0.3 mM Triton X-100, 100 mM KCl, 10 mM CaCl2), substrate (diheptanoyl thio-phosphatidyl choline), DTNB (5,5′-dithiobis(2-nitrobenzoic acid)) and a 96 well plate were all provided. Recombinant hIIa-PLA2 was provided by the Garvan Institute for Medical Research. […] Standard inhibitor solutions were prepared from anhydrous DMSO. All samples were run in triplicate including the blank and control samples. Data was collected on a Molecular Devices Spectramax 250 Microplate Spectrophotometer using Softmax Pro Microplate Analysis Software v2.21. […] Thio-PC is processed by s-PLA2 and the free thiol produced is detected with DTNB (Ellman's Reagent). 5-Thio-2-nitrobenzoic acid is detected spectrophotometrically at […]. IC50's were determined by assaying inhibitors at a range of concentrations.

| pIC50 | SMILES |
| --- | --- |
| 6.42 | O=C(O)CCC(Cc1ccc(OCc2ccccc2)cc1)NC(=O)CCCCCc1ccccc1 (racemic) [Compound 86, (RS)-5-(4-Benzyloxy-phenyl)-4-(6-phenyl-hexanoylamino)-pentanoic acid] |
| 6.36 | O=C(O)CCC(Cc1ccc(OCc2ccccc2)cc1)NC(=O)CCCCCCCc1ccccc1 (racemic) [Compound 87, (RS)-5-(4-Benzyloxy-phenyl)-4-(8-phenyl-octanoylamino)-pentanoic acid] |
| 5.13 | COc1ccccc1CCCCCCC(=O)NC(CCC(=O)O)Cc1ccc(OCc2ccccc2)cc1 (racemic) [Compound 88, (RS)-5-(4-Benzyloxy-phenyl)-4-[7-(2-methoxy-phenyl)-heptanoylamino]-pentanoic acid] |
| 5.09 | CC(=O)Nc1cccc(CCCCCCC(=O)NC(CCC(=O)O)Cc2ccc(OCc3ccccc3)cc2)c1 (racemic) [Compound 89, (RS)-4-[7-(3-Acetylamino-phenyl)-heptanoylamino]-5-(4-benzyloxy-phenyl)-pentanoic acid] |
| 5.97 | O=C(O)CCC(Cc1ccc(OCc2ccccc2)cc1)NC(=O)CCCCCCc1cccc([N+](=O)[O-])c1 (racemic) [Compound 90, (RS)-5-(4-Benzyloxy-phenyl)-4-[7-(3-nitro-phenyl)-heptanoylamino]-pentanoic acid] |
| 5.82 | O=C(O)CCC(Cc1ccc(OCc2ccccc2)cc1)NC(=O)CCCCCCc1cccnc1 (racemic) [Compound 91, (RS)-5-(4-Benzyloxy-phenyl)-4-(7-pyridin-3-yl-heptanoylamino)-pentanoic acid] |
| 6.37 | O=C(O)CCC(Cc1ccc(OCc2ccccn2)cc1)NC(=O)CCCCCCc1ccccc1 (racemic) [Compound 95, (RS)-4-(7-Phenyl-heptanoylamino)-5-[4-(pyridin-2-ylmethoxy)-phenyl]-pentanoic acid] |
| 6.34 | O=C(O)CCC(Cc1ccc(OCc2cccnc2)cc1)NC(=O)CCCCCCc1ccccc1 (racemic) [Compound 96, (RS)-4-(7-Phenyl-heptanoylamino)-5-[4-(pyridin-3-ylmethoxy)-phenyl]-pentanoic acid] |
| 5.82 | O=C(O)CCC(CCc1ccccc1)NC(=O)CCCCCCc1ccccc1 (racemic) [Compound 102, (RS)-6-Phenyl-4-(7-phenyl-heptanoylamino)-hexanoic acid] |
| 5.24 | O=C(O)CC[C@@H](Cc1cn(Cc2ccccc2)c2ccccc12)NC(=O)CCCCCCc1ccccc1 [Compound 19, (S)-5-(1-Benzyl-1H-indol-3-yl)-4-(7-phenyl-heptanoylamino)-pentanoic acid] |
| 5.54 | O=C(O)CC[C@@H](Cc1cn(CCCc2ccccc2)c2ccccc12)NC(=O)CCCCCCc1ccccc1 [Compound 20, (S)-4-(7-Phenyl-heptanoylamino)-5-[1-(3-phenyl-propyl)-1H-indol-3-yl]-pentanoic acid] |
| 5.60 | O=C(O)CCC(Cc1cn(CCCc2ccccc2)cn1)NC(=O)CCCCCCc1ccccc1 (centres unmarked) [Compound 32, 4-(7-Phenyl-heptanoylamino)-5-[1-(3-phenyl-propyl)-1H-imidazol-4-yl]-pentanoic acid] |
| 6.18 | O=C(CCCCCCc1ccccc1)N[C@@H](COP(=O)(O)CCCOc1ccccc1)Cc1ccc(OCc2ccccc2)cc1 [Compound 57, (R)-(3-Phenoxy-propyl)-phosphonic acid mono-[3-(4-benzyloxy-phenyl)-2-(7-phenyl-heptanoylamino)-propyl]ester] |
| 7.62 | O=C(CCCCCCc1ccccc1)NC(COP(=O)(O)CCCO)Cc1ccc(OCc2ccccc2)cc1 (centres unmarked) [Compound 62, (3-Hydroxy-propyl)-phosphonic acid mono-[3-(4-benzyloxy-phenyl)-2-(7-phenyl-heptanoylamino)-propyl]ester] |
| 6.45 | O=C(CCCCCCc1ccccc1)N[C@@H](CCc1nnn[nH]1)Cc1ccc(OCc2ccccc2)cc1 [Compound 66, (S)-7-Phenyl-heptanoic acid [1-(4-benzyloxy-benzyl)-3-(1H-tetrazol-5-yl)-propyl]-amide] |
| 7.00 | O=C(O)CC[C@@H](CCc1ccc(Oc2ccccc2)cc1)NC(=O)CCCCCCc1ccccc1 [Compound 106, 6-(4Phenoxy-phenyl)-4R-(7-phenyl-heptanoylamino)-hexanoic acid] |
| 5.77 | O=C(O)CC[C@@H](CCc1ccc(Oc2ccccc2)cc1)NC(=O)CCCCCCc1cccnc1 [Compound 107, 6-(4-Phenoxy-phenyl)-4R-(7-pyridin-3-yl-heptanoylamino)-hexanoic acid] |
